In ChEMBL document CHEMBL4138088, “Novel 1-(7-ethoxy-1-benzofuran-2-yl) substituted chalcone derivatives: Synthesis, characterization and anticancer activity” (Eur J Med Chem, 2017):
pIC50: −log10 of the molar value. Calls of active or inactive are those of the source. No cut-off for these calls is given here.

Columns and labels:
PC-3 [1] = test: Growth inhibition of human PC3 cells at 20 uM after 72 hrs by SRB assay; type: functional, cell-based
MCF7 [2] = test: Growth inhibition of human MCF7 cells at 20 uM after 72 hrs by ATP bioluminescence assay; type: functional, cell-based
PC-3 [3] = test: Growth inhibition of human PC3 cells at 20 uM after 72 hrs by ATP bioluminescence assay; type: functional, cell-based
MCF7 [4] = test: Growth inhibition of human MCF7 cells at 20 uM after 72 hrs by SRB assay; type: functional, cell-based
PC-3 [5] = test: Induction of apoptosis in human PC3 cells assessed as late apoptotic cells at 20 uM after 48 hrs by caspase 3/7 staining-based flow cytometry (reference value: 1.90%); type: functional
MCF7 [6] = test: Induction of apoptosis in human MCF7 cells assessed as viable cells at 20 uM after 48 hrs by annexin V-propidium iodide staining-based flow cytometry (reference value: 90.25%); type: functional; conditions: MCF7, 48 h, read-out: Activity
MCF7 [7] = test: Induction of ROS generation in human MCF7 cells assessed as accumulation at M2 phase at 20 uM after 48 hrs flow cytometry (reference value: 2.33%); type: functional
PC-3 [8] = test: Induction of mitochondrial membrane depolarization in human PC3 cells assessed as depolarized dead cells at 20 uM after 48 hrs by 7-AAD/Muse mito-potential dye-based assay (reference value: 2.05%); type: functional
A549 [9] = test: Induction of apoptosis in human A549 cells assessed as viable cells at 20 uM after 48 hrs by annexin V-propidium iodide staining-based flow cytometry (reference value: 91.80%); type: functional; conditions: A549, 48 h, read-out: Activity
A549 [10] = test: Induction of apoptosis in human A549 cells assessed as necrotic cells at 20 uM after 48 hrs by caspase 3/7 staining-based flow cytometry (reference value: 1.50%); type: functional
A549 [11] = test: Induction of apoptosis in human A549 cells assessed as necrotic cells at 20 uM after 48 hrs by annexin V-propidium iodide staining-based flow cytometry (reference value: 1.4%); type: functional
PC-3 [12] = test: Induction of apoptosis in human PC3 cells assessed as early apoptotic cells at 20 uM after 48 hrs by annexin V-propidium iodide staining-based flow cytometry (reference value: 1.55%); type: functional
MCF7 [13] = test: Induction of apoptosis in human MCF7 cells assessed as necrotic cells at 20 uM after 48 hrs by annexin V-propidium iodide staining-based flow cytometry (reference value: 0.35%); type: functional
MCF7 [14] = test: Induction of apoptosis in human MCF7 cells assessed as viable cells at 20 uM after 48 hrs by caspase 3/7 staining-based flow cytometry (reference value: 85.30%); type: functional; conditions: MCF7, 48 h, read-out: Activity
A549 [15] = test: Induction of apoptosis in human A549 cells assessed as early apoptotic cells at 20 uM after 48 hrs by caspase 3/7 staining-based flow cytometry (reference value: 1.70%); type: functional
A549 [16] = test: Induction of mitochondrial membrane depolarization in human A549 cells assessed as live cells at 20 uM after 48 hrs by 7-AAD/Muse mito-potential dye-based assay (reference value: 85.84%); type: functional
A549 [17] = test: Growth inhibition of human A549 cells at 20 uM after 72 hrs by ATP bioluminescence assay; type: functional, cell-based
PC-3 [18] = test: Induction of apoptosis in human PC3 cells assessed as viable cells at 20 uM after 48 hrs by caspase 3/7 staining-based flow cytometry (reference value: 94.75%); type: functional; conditions: PC-3, 48 h, read-out: Activity
A549 [19] = test: Induction of ROS generation in human A549 cells assessed as accumulation at M2 phase at 20 uM after 48 hrs flow cytometry (reference value: 1.07%); type: functional
A549 [20] = test: Growth inhibition of human A549 cells after 72 hrs by ATP bioluminescence assay; type: functional, cell-based; conditions: A549, 72 h
A549 [21] = test: Induction of apoptosis in human A549 cells assessed as late apoptotic cells at 20 uM after 48 hrs by annexin V-propidium iodide staining-based flow cytometry (reference value: 3.05%); type: functional
MCF7 [22] = test: Induction of mitochondrial membrane depolarization in human MCF7 cells assessed as depolarized dead cells at 20 uM after 48 hrs by 7-AAD/Muse mito-potential dye-based assay (reference value: 12.43%); type: functional
MCF7 [23] = test: Induction of ROS generation in human MCF7 cells assessed as accumulation at M1 phase at 20 uM after 48 hrs flow cytometry (reference value: 97.67%); type: functional
PC-3 [24] = test: Growth inhibition of human PC3 cells after 72 hrs by ATP bioluminescence assay; type: functional, cell-based; conditions: PC-3, 72 h
A549 [25] = test: Induction of apoptosis in human A549 cells assessed as late apoptotic cells at 20 uM after 48 hrs by caspase 3/7 staining-based flow cytometry (reference value: 2.56%); type: functional
PC-3 [26] = test: Induction of apoptosis in human PC3 cells assessed as necrotic cells at 20 uM after 48 hrs by annexin V-propidium iodide staining-based flow cytometry (reference value: 2.45%); type: functional
PC-3 [27] = test: Induction of mitochondrial membrane depolarization in human PC3 cells assessed as depolarized live cells at 20 uM after 48 hrs by 7-AAD/Muse mito-potential dye-based assay (reference value: 12.60%); type: functional
PC-3 [28] = test: Induction of apoptosis in human PC3 cells assessed as necrotic cells at 20 uM after 48 hrs by caspase 3/7 staining-based flow cytometry (reference value: 3.05%); type: functional
A549 [29] = test: Induction of apoptosis in human A549 cells assessed as viable cells at 20 uM after 48 hrs by caspase 3/7 staining-based flow cytometry (reference value: 94.25%); type: functional; conditions: A549, 48 h, read-out: Activity
PC-3 [30] = test: Induction of apoptosis in human PC3 cells assessed as viable cells at 20 uM after 48 hrs by annexin V-propidium iodide staining-based flow cytometry (reference value: 94.55%); type: functional; conditions: PC-3, 48 h, read-out: Activity
MCF7 [31] = test: Growth inhibition of human MCF7 cells after 72 hrs by ATP bioluminescence assay; type: functional, cell-based; conditions: MCF7, 72 h
A549 [32] = test: Induction of morphological changes in human A549 cells assessed as reduction in cell density at 20 uM after 72 hrs by phase contrast microscopic method; type: functional, cell-based
MCF7 [33] = test: Induction of mitochondrial membrane depolarization in human MCF7 cells assessed as depolarized live cells at 20 uM after 48 hrs by 7-AAD/Muse mito-potential dye-based assay (reference value: 6.67%); type: functional
A549 [34] = test: Growth inhibition of human A549 cells at 20 uM after 72 hrs by SRB assay; type: functional, cell-based
A549 [35] = test: Induction of apoptosis in human A549 cells assessed as early apoptotic cells at 20 uM after 48 hrs by annexin V-propidium iodide staining-based flow cytometry (reference value: 3.75%); type: functional
MCF7 [36] = test: Induction of mitochondrial membrane depolarization in human MCF7 cells assessed as live cells at 20 uM after 48 hrs by 7-AAD/Muse mito-potential dye-based assay (reference value: 78.59%); type: functional
PC-3 [37] = test: Induction of ROS generation in human PC3 cells assessed as accumulation at M2 phase at 20 uM after 48 hrs flow cytometry (reference value: 0.33%); type: functional
A549 [38] = test: Induction of ROS generation in human A549 cells assessed as accumulation at M1 phase at 20 uM after 48 hrs flow cytometry (reference value: 97.60%); type: functional
A549 [39] = test: Induction of mitochondrial membrane depolarization in human A549 cells assessed as depolarized live cells at 20 uM after 48 hrs by 7-AAD/Muse mito-potential dye-based assay (reference value: 3.84%); type: functional
MCF7 [40] = test: Induction of apoptosis in human MCF7 cells assessed as early apoptotic cells at 20 uM after 48 hrs by caspase 3/7 staining-based flow cytometry (reference value: 2.65%); type: functional
MCF7 [41] = test: Induction of apoptosis in human MCF7 cells assessed as late apoptotic cells at 20 uM after 48 hrs by annexin V-propidium iodide staining-based flow cytometry (reference value: 7.25%); type: functional
A549 [42] = test: Induction of mitochondrial membrane depolarization in human A549 cells assessed as depolarized dead cells at 20 uM after 48 hrs by 7-AAD/Muse mito-potential dye-based assay (reference value: 7.88%); type: functional
PC-3 [43] = test: Induction of apoptosis in human PC3 cells assessed as late apoptotic cells at 20 uM after 48 hrs by annexin V-propidium iodide staining-based flow cytometry (reference value: 1.45%); type: functional
A549 [44] = test: Induction of mitochondrial membrane depolarization in human A549 cells assessed as dead cells at 20 uM after 48 hrs by 7-AAD/Muse mito-potential dye-based assay (reference value: 2.44%); type: functional
PC-3 [45] = test: Induction of morphological changes in human PC3 cells assessed as reduction in cell density at 20 uM after 72 hrs by phase contrast microscopic method; type: functional, cell-based
MCF7 [46] = test: Induction of apoptosis in human MCF7 cells assessed as early apoptotic cells at 20 uM after 48 hrs by annexin V-propidium iodide staining-based flow cytometry (reference value: 2.15%); type: functional
PC-3 [47] = test: Induction of ROS generation in human PC3 cells assessed as accumulation at M1 phase at 20 uM after 48 hrs flow cytometry (reference value: 99.67%); type: functional
MCF7 [48] = test: Induction of mitochondrial membrane depolarization in human MCF7 cells assessed as dead cells at 20 uM after 48 hrs by 7-AAD/Muse mito-potential dye-based assay (reference value: 2.30%); type: functional
MCF7 [49] = test: Induction of apoptosis in human MCF7 cells assessed as late apoptotic cells at 20 uM after 48 hrs by caspase 3/7 staining-based flow cytometry (reference value: 10.80%); type: functional
PC-3 [50] = test: Induction of mitochondrial membrane depolarization in human PC3 cells assessed as live cells at 20 uM after 48 hrs by 7-AAD/Muse mito-potential dye-based assay (reference value: 83.15%); type: functional
MCF7 [51] = test: Induction of morphological changes in human MCF7 cells assessed as reduction in cell density at 20 uM after 72 hrs by phase contrast microscopic method; type: functional, cell-based
MCF7 [52] = test: Induction of apoptosis in human MCF7 cells assessed as necrotic cells at 20 uM after 48 hrs by caspase 3/7 staining-based flow cytometry (reference value: 1.25%); type: functional
PC-3 [53] = test: Induction of mitochondrial membrane depolarization in human PC3 cells assessed as dead cells at 20 uM after 48 hrs by 7-AAD/Muse mito-potential dye-based assay (reference value: 2.20%); type: functional
PC-3 [54] = test: Induction of apoptosis in human PC3 cells assessed as early apoptotic cells at 20 uM after 48 hrs by caspase 3/7 staining-based flow cytometry (reference value: 0.3%); type: functional

CCOc1cccc2cc(C(=O)/C=C/c3cc(OC)c(OC)cc3OC)oc12
growth inhibition (GI) (PC-3 [1]): Active
growth inhibition (GI) (MCF7 [2]): Active
growth inhibition (GI) (PC-3 [3]): Active
growth inhibition (GI) (MCF7 [4]): Active

CCOc1cccc2cc(C(=O)/C=C/c3ccc(C)cc3)oc12
growth inhibition (GI) (MCF7 [2]): Active
growth inhibition (GI) (MCF7 [4]): Active

CCOc1cccc2cc(C(=O)/C=C/c3ccc(OC)cc3)oc12
growth inhibition (GI) (MCF7 [2]): Active
growth inhibition (GI) (MCF7 [4]): Active

CCOc1cccc2cc(C(=O)/C=C/c3ccco3)oc12
growth inhibition (GI) (MCF7 [2]): Active
growth inhibition (GI) (MCF7 [4]): Active

CCOc1cccc2cc(C(=O)/C=C/c3ccc(N(C)C)cc3)oc12
Activity (PC-3 [5]): 11.1%
viability at 20 µM (MCF7 [6]): 3.3%
Activity (MCF7 [7]): 14.87%
Activity (PC-3 [8]): 18.6%
viability at 20 µM (A549 [9]): 2.8%
Activity (A549 [10]): 10.5%
Activity (A549 [11]): 0.2%
Activity (PC-3 [12]): 6.45%
Activity (MCF7 [13]): 0.7%
viability at 20 µM (MCF7 [14]): 13.8%
Activity (A549 [15]): 7.75%
Activity (A549 [16]): 15.29%
growth inhibition (GI) (A549 [17]): Active
viability at 20 µM (PC-3 [18]): 51%
Activity (A549 [19]): 20.67%
pIC50 (A549 [20]): 5.05
Activity (A549 [21]): 95.2%
Activity (MCF7 [22]): 13.5%
Activity (MCF7 [23]): 85.13%
pIC50 (PC-3 [24]): 5.00
Activity (A549 [25]): 58.7%
Activity (PC-3 [26]): 6.9%
Activity (PC-3 [27]): 30.5%
Activity (PC-3 [28]): 37.25%
viability at 20 µM (A549 [29]): 23.1%
viability at 20 µM (PC-3 [30]): 26.9%
pIC50 (MCF7 [31]): 5.70
Activity (A549 [32]): Active
Activity (MCF7 [33]): 7.9%
growth inhibition (GI) (A549 [34]): Active
Activity (A549 [35]): 1.8%
Activity (MCF7 [36]): 24.3%
Activity (PC-3 [37]): 1.17%
Activity (A549 [38]): 79.33%
Activity (A549 [39]): 50.57%
Activity (MCF7 [40]): 45%
Activity (MCF7 [41]): 91.7%
Activity (A549 [42]): 32.78%
Activity (PC-3 [43]): 59.7%
growth inhibition (GI) (MCF7 [2]): Active
growth inhibition (GI) (PC-3 [3]): Active
Activity (A549 [44]): 1.35%
Activity (PC-3 [45]): Active
Activity (MCF7 [46]): 4.3%
Activity (PC-3 [47]): 98.83%
Activity (MCF7 [48]): 54.3%
Activity (MCF7 [49]): 41%
Activity (PC-3 [50]): 31.75%
Activity (MCF7 [51]): Active
Activity (MCF7 [52]): 0.26%
Activity (PC-3 [53]): 19.15%
growth inhibition (GI) (MCF7 [4]): Active
Activity (PC-3 [54]): 0.65%
